Earlier results, collected in patent US20210189389A1, “METHODS OF MODULATING ANK1” (SOCIETE DES PRODUITS NESTLE S.A., priority 2017, published 2021).

Test system: ANK1
Conditions: effect on ANK1 expression, from Comparative Toxicogenomics Database and cited reference

Molecule | Interaction Actions
CC(=N)S [Thioacetamide] | affects expression
CCCc1cc(=O)[nH]c(=S)[nH]1 [Propylthiouracil] | decreases expression
Brc1c(Br)c(Br)c(Oc2c(Br)c(Br)c(Br)c(Br)c2Br)c(Br)c1Br [decabromobiphenyl ether] | decreases expression
CN(C)CCCN1c2ccccc2Sc2ccc(Cl)cc21 [Chlorpromazine] | affects expression
NC(=O)N1c2ccccc2C=Cc2ccccc21 [Carbamazepine] | affects expression
CC[C@@]1(O)C(=O)OCc2c1cc1n(c2=O)Cc2cc3c(CN(C)C)c(O)ccc3nc2-1 [Topotecan] | decreases expression
CCCC(CCC)C(=O)O [Valproic Acid] | affects expression
c1ccc2c(c1)cc1ccc3cccc4ccc2c1c34 [Benzo(a)pyrene] | decreases expression
CC(=O)Nc1ccc(O)cc1 [Acetaminophen] | affects expression
Gentamicins | decreases expression
CC/C(=C(\c1ccccc1)c1ccc(OCCN(C)C)cc1)c1ccccc1 [Tamoxifen] | affects expression
O=C1[O][Pt]2([NH][C@@H]3CCCC[C@H]3[NH]2)[O]C1=O [oxaliplatin] | decreases expression
CCCCc1oc2ccccc2c1C(=O)c1cc(I)c(OCCN(CC)CC)c(I)c1 [Amiodarone] | affects expression
ClC1=C(Cl)[C@]2(Cl)[C@@H]3[C@@H]4C[C@@H]([C@H]5O[C@@H]45)[C@@H]3[C@@]1(Cl)C2(Cl)Cl [Dieldrin] | decreases expression
